“Also recorded” adds a separate entry of the source.

Common to all, as to format: in vivo, hamster
Data set [1] concerns blood vessels (arterioles and venules) in skin. In words: Effect of glycerol applied to the subdermal side of skin on blood flow (dorsal skin flap window preparation, CDOCT imaging). The protocol: Hamsters were anesthetized with a 4:3 mixture of Ketamine (20 mg/ml):Rompun (100 mg/ml) and 0.15 ml/100 g body weight of the solution was delivered IP. […] This in vivo model allows the simultaneous observation of the epidermal and subdermal sides of the skin while maintaining hydration and function [Papenfuss et al., 1979]. The preparation has been used as an in vivo model for optical imaging blood vessels on the subdermal side of skin while maintaining access to the epidermis [Barton et al., 1998, Vargas et al., 2001].
The preparation includes shaving and epilating the entire dorsal area of a hamster. The skin is pulled away from the body along the dorsal midline and sutured to a vertical c-clamp. A circular region 1 cm in diameter is cut from one single thickness of skin, exposing the subdermal side of the opposing thickness of skin. An aluminum chamber is sutured to both sides of the skin, and glass is placed over the cutout section to prevent the tissue from dehydrating on the subdermal side. During the experiments, this glass is removed for improved imaging, and hydration is maintained with application of physiological saline.
Blood vessels in the skin of the dorsal window preparation are located in the subdermal fat and connective tissue layers approximately 400-700 μm beneath the epidermal surface and about 80-100 μm from the exposed subdermal surface of a 100 g hamster. Arterioles and venules in the dorsal window preparation range in diameter between about 50-500 μm in inner diameter, with the main arteriole and venule about 350-500 μm in diameter.
(§1) Anhydrous glycerol was applied to the subdermal side of the dorsal skin flap window preparation. The subdermal side of the window preparation contains a well approximately 2 mm deep and 1 cm in diameter placed directly over the exposed subdermal skin. A small opening at the bottom allows the flow of glycerol out of the well. This well was filled with glycerol and continually refilled for a total time of twenty minutes. Any remaining glycerol was removed from the well at the end of twenty minutes.
(§2) The skin surrounding the main arteriole-venute pair in each window preparation was first imaged using Color Doppler optical coherence tomography (CDOCT) (see FIG. 5). The skin was imaged from the subdermal side since these blood vessels are located approximately 100 μm from the subdermal surface, allowing for accurate determination of vessel flow and size characteristics. In the case of control samples (2), the vessels were irradiated from the epidermal side immediately after imaging the native skin. This was achieved by applying a single pulse from a 532 nm, 3 mm spot size, 10 ms pulse duration laser (Versapulse V, Coherent) to the skin without altering its position relative to the CDOCT sample probe. The experimental setup is illustrated in FIG. 5.
(§3) In the other three samples, glycerol was applied to the subdermal side of the window preparation for twenty minutes after imaging the native skin with CDOCT. The optically cleared skin was then imaged again using CDOCT. Laser pulses were applied in the same manner described above and the skin was re-imaged after twenty-four hours to assess if permanent vessel closure occurred.

In data set [2] the test system is arterioles and venules of the dorsal skin flap window preparation. In words: Subdermal (direct) laser irradiation of blood vessels after glycerol, RE50 for permanent coagulation. Particulars: 532 nm, 10 ms pulse, 3 mm spot, versus published native skin values [Barton et al., 1998].
Source text: as §1

Data set [3] relates to main arteriole-venule pair of the dorsal skin flap window preparation. In words: Epidermal laser irradiation of main arteriole-venule pair after glycerol, CDOCT assessment at 24 h.
Source text: as §1
In this set of experiments, three dorsal skin flap window preparations were treated with glycerol on the subdermal side of the skin. Then, the main arteriole-venule pair (such as the one labeled A and V in FIG. 3) was irradiated from the epidermal side to determine the approximate range of radiant exposures required to permanently destroy blood vessels in skin treated with glycerol. Since no published data exists for direct comparison with controls, two native hamster dorsal skin flap window preparations were irradiated from the epidermal side as well.
as §2
The skin was imaged again to assess changes to blood flow. […] If any changes in flow or vessel size were observed, the skin was not irradiated again and was imaged after 24 hours. In all, 5 pulses were delivered ranging in radiant exposure from 4.13 J/cm^2 to 16 J/cm^2, the maximum allowable for the laser parameters used. In the second control sample, only a single pulse was delivered with a radiant exposure of 12 J/cm^2.
as §3

As for `OCC(O)CO` [glycerol], the “permanent vessel damage from agent alone” value in data set [1] (addition of agent to blood vessels, no laser) is reported as “did not result in any permanent vessel damage”. Further, the flow in arterioles result in data set [1] (glycerol added to subdermal side of skin, prolonged periods of exposure) is given as “flow in arterioles ceased as well”. Further, in data set [1] (glycerol added to subdermal side of skin, within twenty minutes, venules approximately 100-400 μm in diameter), the flow in venules entry is reported as “ceased”. The “flow in arteriole and venule (Doppler image)” value in data set [1] (glycerol for twenty minutes, arteriole 250 μm, venule 300 μm, imaged from subdermal side) was “no flow remains; also recorded: flow does not remain in either the arteriole or venule”. For the same compound, the “flow in arterioles and venules after hydration (reversibility)” value in data set [1] (skin hydrated in physiologic saline solution after glycerol) is “returned to physiologic values; also recorded: upon hydration the skin and blood vessels return to their native state”. For the same compound, in data set [2], the “reduction of radiant exposure required for permanent vessel destruction, arterioles” value amounted to 10 factor and the “reduction of radiant exposure required for permanent vessel destruction, venules” value is on record as 5-8 factor. For the same compound, the “vessel outcome 24 h after single pulse of 1.6 J/cm^2” value in data set [3] (glycerol twenty minutes, arteriole 250 μm, venule 300 μm, 450 μm from epidermal surface, skin hydrated) is “Permanent coagulation has been achieved in both blood vessels; also recorded: flow has not returned to either vessel”. In addition, in data set [3] (glycerol, 200 μm arteriole and 410 μm venule), the “vessel outcome after radiant exposure of 4.13 J/cm^2” value was “successful permanent coagulation”. For the same compound, in data set [3] (glycerol, 300 μm arteriole and 390 μm venule), the “vessel outcome after radiant exposure of 4.95 J/cm^2” value is listed as “only the venule was successfully coagulated”. In addition, the “lowest radiant exposure that successfully destroyed blood vessels” value in data set [3] (three window preparations, glycerol before irradiation from the epidermal side, 532 nm, 10 ms, 3 mm spot) amounted to 1.6 J/cm^2.

For the origin of these results see patent US6942663B2, “Laser treatment of cutaneous vascular lesions” (Board of Regents, The University of Texas System, priority 2002, dated 2005).
